Laboratory results published in patent US20100029509A1, “NOVEL METHODS” (NATURAL ENVIRONMENT RESEARCH COUNCIL, priority 2006, published 2010).

Columns and labels:
[1] = tested on: xylR/Pu regulation system (Pu promoter activity); assay: Induction of Pu promoter (relative bioluminescence, luxCDABE reporter) in Acinetobacter ADP1_pu_lux_xylR; type: cell-based, Acinetobacter baylyi ADP1; settings: for Induction of Pu promoter: ADP1_pu_lux_xylR, inducer 100 μM in LB, following 30 hrs incubation; for Induction of Pu promoter activity: strain ADPWH_Pu_lux_xylR, bioluminescence from lux genes
Experimental: Pu promoter activity was monitored by measuring relative bioluminescence (bioluminescence divided by OD600). For each measurement, at each time point 100 μl samples were analyzed in triplicate in a well of a black, clear-bottom 96-well microplate (Fisher Scientific). At OD600 and Bioluminescence were measured using a Synergy HT Multi-Detection Microplate Reader (Bio-Tek™).
A single colony of Acinetobacter sp. ADP_pu_lux_xylR was separately inoculated into 5 ml LB medium in a 30-ml glass universal tube. Toluene, o-, m-, p-xylenes, phenol, benzene, naphthalene, 2-, 3-, or 4-hydroxybenzoic, benzoate or catechol was added into LB (100 μM) to assay induction of Pu. Samples were incubated at 20, 28, 30, 34 or 37° C. with shaking at 150 rpm. Samples were repeatedly loaded on black 96-well microplate for bioluminescence and OD600 measurement for 30 hours of incubation.

[2] = tested on: Pu promoter activity; assay: Catabolic repression of Pu activity in ADP1_pu_lux_xylR grown in minimal medium; type: cell-based, Acinetobacter baylyi ADP1
Experimental: Pu promoter activity was monitored by measuring relative bioluminescence (bioluminescence divided by OD600). For each measurement, at each time point 100 μl samples were analyzed in triplicate in a well of a black, clear-bottom 96-well microplate (Fisher Scientific). At OD600 and Bioluminescence were measured using a Synergy HT Multi-Detection Microplate Reader (Bio-Tek™). To examine the effect of catabolic repression Acinetobacter sp. ADP1_pu_lux_xylR was inoculated into 5 ml MM supplemented with 50 mM glucose or succinate as a sole carbon source in a 30-ml glass universal tube. […] The bacterial samples were incubated at 28° C. shaker with shaking at 150 rpm. […] For each treatment, three replicates were carried out. Samples were taken and measured for bioluminescence and OD600 every 30 min.

[3] = tested on: xylR/Pu regulation system (Pu promoter activity); assay: Induction of Pu promoter (relative bioluminescence, luxCDABE reporter) in Acinetobacter ADP1_pu_lux_xylR; type: cell-based, Acinetobacter baylyi ADP1; settings: ADP1_Pu_lux_xylR on LB agar with 10 mM glucose, FIG. 1B; uninduced cells remained dark
[4] = tested on: salA promoter operably linked to the lux genes; settings: LB + 6 μg/ml tetracycline + 2 mM salicylate, FIG. 11

Compound	Induction of Pu promoter [1]	further results
O=C(O)c1ccc(O)cc1 [4-hydroxybenzoic]	cannot be induced	–
O=C(O)c1cccc(O)c1 [3-hyroxybenzoic]	cannot be induced	–
Cc1cccc(C)c1 [m-xylene]	–	Induction of Pu promoter activity [1]: can be induced
Cc1ccccc1C [o-xylene]	–	Induction of Pu promoter activity [1]: can be induced
c1ccccc1 [benzene]	cannot be induced	–
O=C(O)c1ccccc1 [benzoate]	cannot be induced	–
O=C(O)CCC(=O)O [succniate, succinate]	–	Repression of Pu activity by sole carbon source ([2]; minimal medium with 50 mM carbon source, toluene, m-, p- or o-xylene 500 μM as inducers, 28° C., FIG. 3A): did
Cc1ccc(C)cc1 [p-xylene]	–	Induction of Pu promoter activity [1]: can be induced
O=C(O)c1ccccc1O [2-hydroxybenzoic (salicylic acid), salicylic acid]	cannot be induced	–
Cc1ccccc1 [toluene]	–	Induction of Pu promoter activity [1]: can be induced
xylene	–	Bioluminescence on agar medium when induced by vapors [3]: strong bioluminescence
Oc1ccccc1 [phenol]	cannot be induced	–
Oc1ccccc1O [catechol]	cannot be induced	–
6-phosphogluconic acid trisodium salt [6-phosphogluconate, reference compound]	–	Effect on Pu activity of added candidate repression signal molecule ([2]; added to MM-glucose at 0.1-300 μM after maximal induction by m-xylene, data not shown): did not affect Pu activity
c1ccc2ccccc2c1 [naphthalene]	cannot be induced	–
O=C(O)c1ccccc1O [salicylate]	–	Activation by salicylate, Transformant B (negative) [4]: not activated
